System: obstruction-released kidney of male SD rats
Test: Obstruction release model after complete obstruction of unilateral ureter for 14 days (UUO/Release, Test Example 3)
Type: in vivo, rat
Parameters: key to Suppressive Effect to Glomerular Lesion / Suppressive Effect to Lesion of Tubulointerstitial Tissue: ∘: available; Δ: somewhat available; x: not available
Method: Obstruction Release Model after Complete Obstruction of Unilateral Ureter for 14 Days
Experimental models were prepared by a method devised and established by Ishibashi (Michio Ishibashi, et al.: The Japanese Journal of Nephrology, 42: 248, 2000) using male SD rats of 8-9 weeks age and about 280 g. Thus, the rat was laparotomized under anesthetization with ether and ureter was ligated with 7-0 Nylon at the height of the margin of lower pole of left kidney to close the abdomen. On the 14th day after obstruction, the obstruction was released and urinary passage was reconstructed using a cuff. Thus, after 14 days, the part of ligated obstructed ureter was resected, a polyethylene tube of 25 gages (manufactured by Nippon Sherwood) was used as a cuff and inserted into and retained at the lumen from the cut end of the lower normal ureter, then the cuff was also retained in the expanded upper ureter and each of them was ligated and fixed by 7-0 Nylon to reconstruct the urinary passage. At the same time, the right kidney at the opposite side was excised. After the release of the obstruction, body weight was measured, blood was collected on the 2nd day, 5th day and 7th day from the release to measure serum creatinine, then the rat was sacrificed under anesthetization and the left obstruction-released kidney was excised. With regard to the excised kidney, there were carried out measurement of weight of the kidney and pathological test for the kidney.
An in vivo biological test was carried out for the γ-lactone derivatives according to the present invention using the above models. With regard to the test compound, bulk powder of the test compound was dissolved in an aseptic physiological saline together with gum arabic and the final concentration of gum arabic was 5%(vol/vol). The concentration of the test compound 30 mg/ml was suspended in 5% gum arabic-saline solution. The preparation was subcutaneously injected at the dose of 30 mg/kg every day throughout the experiment. With regard to the test compound, there were used (9-1), (4-2) and (7-3) as the compounds of group I suppressing the SPFC production by allo-MLC stimulation, i.e., the compounds which selectively suppress the induction of effector macrophage in the presence of allo-MLC while there was used (3-2) as the compound of group II suppressing the SPFC production by LPS stimulation, i.e., the compounds which selectively suppress the induction of effector macrophage in the presence of LPS.
In the Table, “functional classification” of the compound means the above group I, group II and group III. “Compound” means the compound bearing each of the above-mentioned compound numbers. The fact whether glomerular lesion was suppressed was judged by the ameriolation of the lesions such as thickness of wall of Bowman's capsule, hyperplasia of mesangial cells and glomerular sclerosis. The fact whether lesion of tubulointerstitial tissue was suppressed was judged by the ameriolation of the lesions such as thickness of basement membrane of tubules, cellular infiltration and fibrosis of interstitial tissue. In the table, “control” is the result when the same test as above was carried out using 5% gum arabic only which is a solvent.
In order to further confirm whether the preventive and therapeutic effect of the γ-lactone derivatives of the present invention to the target cell damage is selective, (7-3) of the group I and (6-1) of the group II were used as test compounds and they were subcutaneously injected at the dose of 30 mg/kg every day and compared with the control group. With regard to the control group, only 5% gum arabic which is a solvent was used and the same test as above was carried out.

[1] = 30 mg/kg subcutaneously every day, Table 2
[2] = Experimental Model of Rat: UUO/Release

CCOC(=O)C(=O)CCC(=O)O [(9-1), ethyl 2-ketoglutarate]
selectivity of the suppressive effect on renal lesions (30 mg/kg subcutaneously every day): selective suppressive effect | Rate of Cases where Glomerular Lesion was Suppressed [1]: 0% (0/4) | Rate of Cases where tubulointerstitial Lesion was Suppressed [1]: 100% (4/4) | Serum Creatinine level (mg/dl) on the 7th Day from Release of Obstruction [1]: 2.0 ± 0.2 mg/dL | Weight of Kidney (g) on the 7th Day from Release of Obstruction [1]: 3.01 ± 0.56 g | Suppressive Effect to Glomerular Lesion [2]: x | Suppressive Effect to Lesion of Tubulointerstitial Tissue [2]: ∘
